Test results published in PMC7927021 (Toxins, 2021).
Several values for one entry are separate records, joined by “and”; a condition that tells them apart may be missing. Equal values may be shown once.

Columns and labels:
[1] = test system: Caco-2 cells; type: cell-based, human
[2] = test system: Caco-2 cells; type: cell-based, human; remark: listed apart in the source
[3] = parameters: method as in PMID 21699062; conditions: established by JECFA in 2011; cited from earlier work

Row | Structure (SMILES) | Concentration range in which viability was significantly/sharply reduced [1] | Concentration range of robust decrease in cell viability [1] | IC50 [1] | Number of KEGG pathways in which DEGs were enriched [2] | Number of differentially expressed genes (DEGs) [2] | PMTDI (Provisional Maximum Tolerable Daily Intake) [3]
1 | CC(=O)O[C@@H]1C[C@]2(C)[C@@]3(CO)[C@H](O)C(=O)C(C)=C[C@H]3O[C@H]1[C@@]21CO1 [3-ADON, trichothec-9-en-8-one, 3-(acetyloxy)-12,13-epoxy-7,15-dihydroxy-, (3α,7α)] | 1 to 10 µM | 2 to 10 µM | 13.2 µM and 10.8 µM and 7.84 µM | 42 | 3132 | –
2 | CC(=O)OC[C@]12[C@H](O)C(=O)C(C)=C[C@H]1O[C@@H]1[C@H](O)C[C@@]2(C)[C@]12CO2 [15-ADON, trichothec-9-en-8-one, 15-(acetyloxy)-12,13-epoxy-3,7-dihydroxy-, (3α,7α)] | 0.2 to 10 µM | 0.5 to 10 µM | – | 28 | 2425 | –
3 | CC1=C[C@H]2O[C@@H]3[C@H](O)C[C@](C)([C@@]2(CO)[C@H](O)C1=O)[C@]31CO1 [DON, Deoxynivalenol] | 0.2 to 10 µM | 0.2 to 10 µM | – | 27 | 2656 | 1 μg/kg bw per day
